Entries after “also recorded” stand apart in the source; their conditions may differ.

One may read the IC50 as the concentration needed to halve the response being measured.

The test system of one data set is PC12 cells. In words: PC12 toxicity assay. The settings on record: 100 μmol/L, 72 h, absence of NGF. The data set is classed as cell-based.
In data set [1] the test system is NGF-dependent PC12 cell differentiation. In words: PC12 NGF-dependent neurite outgrowth. The data set is classed as cell-based. As to conditions: 500 pM NGF; for IC50: read-out: IC50 PC12 neurite outgrowth, 72 h, 100 μmol/L to 31.6 nmol/L, n = 3.
The next data set concerns the target Mouse NGF (Mus musculus, UniProt P01139). In words: SPR binding affinity of analogs to immobilized NGF. The settings on record: read-out: KD, binding affinity to immobilized NGF, two-site steady-state analysis, 0.70-200 μmol/L, 25 °C, mean of triplicate.
The next data set deals with immobilized TrkA (Homo sapiens, UniProt P04629). In words: SPR binding to immobilized TrkA. A general note: Surface plasmon resonance follows binding to a sensor surface in real time, without labels.
Chain of immobilized TrkA (P04629 33-796): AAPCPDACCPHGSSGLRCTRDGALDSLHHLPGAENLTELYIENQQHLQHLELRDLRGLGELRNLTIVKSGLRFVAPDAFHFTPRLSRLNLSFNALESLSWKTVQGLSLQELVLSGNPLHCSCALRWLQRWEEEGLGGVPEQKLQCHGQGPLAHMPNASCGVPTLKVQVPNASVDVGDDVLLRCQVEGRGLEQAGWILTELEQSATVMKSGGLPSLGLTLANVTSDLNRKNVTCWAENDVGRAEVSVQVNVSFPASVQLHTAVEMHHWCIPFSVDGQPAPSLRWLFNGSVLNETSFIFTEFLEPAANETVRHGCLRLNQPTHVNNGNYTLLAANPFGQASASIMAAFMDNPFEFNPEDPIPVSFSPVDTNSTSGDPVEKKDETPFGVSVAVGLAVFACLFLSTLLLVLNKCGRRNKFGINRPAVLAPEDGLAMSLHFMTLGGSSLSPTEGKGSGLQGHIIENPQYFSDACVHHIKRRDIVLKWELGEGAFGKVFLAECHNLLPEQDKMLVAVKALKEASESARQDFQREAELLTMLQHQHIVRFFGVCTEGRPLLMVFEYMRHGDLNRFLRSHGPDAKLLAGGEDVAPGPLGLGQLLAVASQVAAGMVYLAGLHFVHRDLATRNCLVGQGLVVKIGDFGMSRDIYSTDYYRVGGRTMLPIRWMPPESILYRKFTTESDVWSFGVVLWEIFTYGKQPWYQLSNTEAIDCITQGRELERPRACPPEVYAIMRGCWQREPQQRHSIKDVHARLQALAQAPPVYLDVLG

Chain of Mouse NGF (P01139 122-241): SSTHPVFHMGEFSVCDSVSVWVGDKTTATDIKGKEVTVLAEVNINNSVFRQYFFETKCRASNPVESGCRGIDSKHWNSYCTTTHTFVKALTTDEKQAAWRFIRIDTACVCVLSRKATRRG

Turning to `O=C(O)c1ccc(Cl)c(N2C(=O)c3ccc4c(=O)n5c6ccc([N+](=O)[O-])cc6nc5c5ccc(c3c45)C2=O)c1` [BVNP‐0197, 4‐Chloro‐3‐{6‐nitro‐11,16,18‐trioxo‐3,10,17‐triazahexacyclo[13.6.2.0^2,^10.0^4,^9.0^12,^22.0^19,^23]tricosa‐1(21),2,4,6,8,12,14,19,22‐nonaen‐17‐yl}benzoic acid], the “PC12 cell count and morphology versus control” value in the data set with PC12 cells is on record as “did not significantly differ from untreated cells”. In data set [1] (increasing concentrations 0-100 μmol/L), the “NGF-mediated PC12 cell process formation” value was “significantly decreased”.
As for `Cn1c2ccc(NC(=O)c3ccccc3)cc2c(=O)n2nc(C(=O)O)cc12` [PD 90780, 7‐(benzolylamino)‐4,9‐dihydro‐4‐methyl‐9‐oxo‐pyrazolo[5,1‐b]quinazoline‐2‐carboxylic acid], in data set [1], the IC50 was determined as 33.2 µM. Besides, the Kd at Mouse NGF is 35.8 µM. In addition, the “binding to immobilized TrkA” value at immobilized TrkA is on record as “none showed binding; also recorded: do not bind to TrkA”.
Consider `Cc1cc2nc3c(=O)[nH]c(=O)nc-3n(C)c2cc1C=O` [Ro 08‐2750], for which, in data set [1], the IC50 stood at 12 µM. The Kd on Mouse NGF is 32.4 µM. Besides, the “binding to immobilized TrkA” value on immobilized TrkA is recorded as “none showed binding; also recorded: do not bind to TrkA”.

Source of the values: PMC5625151 (Pharmacology Research & Perspectives, 2017).
